Data as given in ChEMBL document CHEMBL1773016, “Discovery and optimization of a series of benzothiazole phosphoinositide 3-kinase (PI3K)/mammalian target of rapamycin (mTOR) dual inhibitors” (J Med Chem, 2011).

Key:
in vitro [1] = conditions: human, liver microsomes
Description: Clearance in human liver microsomes

[2] = biological target: Serine/threonine-protein kinase mTOR (Homo sapiens, UniProt P42345)
in vitro [3] = conditions: rat, liver microsomes
Description: Clearance in rat liver microsomes

[4] = biological target: Phosphatidylinositol 4,5-bisphosphate 3-kinase catalytic subunit alpha isoform (Homo sapiens, UniProt P42336)
Phosphatidylinositol 4,5-bisphosphate 3-kinase catalytic subunit alpha isoform, sequence (P42336 whole entry, canonical isoform): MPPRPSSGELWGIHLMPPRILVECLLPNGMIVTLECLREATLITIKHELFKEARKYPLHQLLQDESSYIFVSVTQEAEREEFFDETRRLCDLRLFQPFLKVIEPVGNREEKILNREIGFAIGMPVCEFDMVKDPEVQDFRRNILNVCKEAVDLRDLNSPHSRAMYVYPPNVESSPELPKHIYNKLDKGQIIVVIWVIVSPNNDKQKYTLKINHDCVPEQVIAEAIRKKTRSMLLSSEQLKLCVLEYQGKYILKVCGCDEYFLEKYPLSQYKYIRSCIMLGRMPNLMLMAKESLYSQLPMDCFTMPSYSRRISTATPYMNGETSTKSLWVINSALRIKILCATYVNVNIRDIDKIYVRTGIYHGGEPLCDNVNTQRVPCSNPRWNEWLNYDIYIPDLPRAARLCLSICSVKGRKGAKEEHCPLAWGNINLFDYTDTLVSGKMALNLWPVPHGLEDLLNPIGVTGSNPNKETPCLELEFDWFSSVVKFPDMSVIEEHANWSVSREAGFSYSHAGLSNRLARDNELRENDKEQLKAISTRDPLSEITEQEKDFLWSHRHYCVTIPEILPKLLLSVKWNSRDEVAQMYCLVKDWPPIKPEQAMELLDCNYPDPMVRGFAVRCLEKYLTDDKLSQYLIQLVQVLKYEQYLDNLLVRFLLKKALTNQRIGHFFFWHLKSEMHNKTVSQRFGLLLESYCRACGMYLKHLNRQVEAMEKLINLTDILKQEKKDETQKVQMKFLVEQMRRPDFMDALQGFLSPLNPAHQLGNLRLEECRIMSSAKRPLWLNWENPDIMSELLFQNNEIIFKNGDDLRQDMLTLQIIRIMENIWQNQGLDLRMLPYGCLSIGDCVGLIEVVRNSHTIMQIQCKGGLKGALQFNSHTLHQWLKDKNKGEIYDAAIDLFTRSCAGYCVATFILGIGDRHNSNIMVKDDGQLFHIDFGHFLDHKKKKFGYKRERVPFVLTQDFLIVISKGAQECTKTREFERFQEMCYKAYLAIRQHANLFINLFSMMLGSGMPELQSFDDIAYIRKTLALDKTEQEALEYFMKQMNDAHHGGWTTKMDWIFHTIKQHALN
Description: Inhibition of human PI3Kalpha expressed in Sf9 cells

SMILES: CC(=O)Nc1nc2ccc(-c3cnc(Cl)c(NS(=O)(=O)c4ccc(Cl)cc4)c3)cc2s1
- microsomal CLint (in vitro [1]): < 14 µL/min/mg
- IC50 [2]: < 1 nM
- microsomal CLint (in vitro [3]): < 14 µL/min/mg
- Ki [4]: < 1 nM

SMILES: CC(=O)Nc1nc2ccc(-c3cnc(Cl)c(NS(=O)(=O)c4ccccc4)c3)cc2s1
- microsomal CLint (in vitro [1]): < 14 µL/min/mg
- IC50 [2]: < 1 nM
- microsomal CLint (in vitro [3]): > 399 µL/min/mg

SMILES: COc1ccc(S(=O)(=O)N(C)c2nccc(-c3ccc4nc(NC(C)=O)sc4c3)n2)cc1
- microsomal CLint (in vitro [1]): > 399 µL/min/mg
- IC50 [2]: 285 nM
- microsomal CLint (in vitro [3]): > 399 µL/min/mg
- Ki [4]: 76 nM

SMILES: COc1ccc(Sc2nccc(-c3ccc4nc(NC(C)=O)sc4c3)n2)cc1
- IC50 [2]: 3010 nM
- Ki [4]: 18 nM

SMILES: COc1ccc(S(=O)(=O)Nc2cc(-c3ccc4nc(NC(C)=O)sc4c3)cnc2C#N)cc1
- IC50 [2]: 1.6 nM
- Ki [4]: 1.4 nM

SMILES: CCN(c1nccc(-c2ccc3nc(NC(C)=O)sc3c2)n1)S(=O)(=O)c1ccc(OC)cc1
- IC50 [2]: 262 nM
- Ki [4]: 62 nM

SMILES: COc1ccc(S(=O)(=O)Nc2cncc(-c3ccc4nc(NC(C)=O)sc4c3)n2)cc1
- IC50 [2]: 15 nM
- Ki [4]: 9 nM

SMILES: CC(=O)Nc1nc2ccc(-c3ccnc(Sc4ccccc4)n3)cc2s1
- IC50 [2]: > 6000 nM

SMILES: CC(=O)Nc1nc2ccc(-c3ccnc(OCc4cccc(F)c4)n3)cc2s1
- IC50 [2]: > 6000 nM

SMILES: CC(=O)Nc1nc2ccc(-c3cnc(Cl)c(NS(=O)(=O)c4ccc(C(F)(F)F)cc4)c3)cc2s1
- microsomal CLint (in vitro [1]): < 14 µL/min/mg
- IC50 [2]: 1.6 nM
- microsomal CLint (in vitro [3]): < 14 µL/min/mg
- Ki [4]: < 1 nM

SMILES: COc1ccc(S(=O)(=O)Nc2cccc(-c3ccc4nc(NC(C)=O)sc4c3)c2)cc1
- IC50 [2]: 1500 nM
- Ki [4]: 48 nM

SMILES: COc1ccc(S(=O)(=O)Nc2cncc(-c3ccc4nc(NC(C)=O)sc4c3)c2)cc1
- IC50 [2]: 11 nM
- Ki [4]: 1.6 nM

SMILES: COc1ccc(S(=O)(=O)Nc2cc(-c3ccc4nc(NC(C)=O)sc4c3)cnc2C)cc1
- IC50 [2]: 6 nM
- Ki [4]: 1.2 nM

SMILES: CC(=O)Nc1nc2ccc(-c3ccnc(Sc4ccc(C)cc4)n3)cc2s1
- IC50 [2]: > 6000 nM
- Ki [4]: 59 nM

SMILES: CC(=O)Nc1nc2ccc(-c3ccnc(NS(=O)(=O)c4ccccc4F)n3)cc2s1
- IC50 [2]: 45 nM
- Ki [4]: 41 nM

SMILES: CC(=O)Nc1nc2ccc(-c3ccnc(NS(=O)(=O)c4ccc(F)cc4)n3)cc2s1
- IC50 [2]: 719 nM
- Ki [4]: 826 nM

SMILES: CC(=O)Nc1nc2ccc(-c3ccnc(OCCCc4ccccc4)n3)cc2s1
- IC50 [2]: > 6000 nM
- Ki [4]: 32 nM

SMILES: CC(=O)Nc1nc2ccc(-c3ccnc(Sc4ccccc4F)n3)cc2s1
- IC50 [2]: > 6000 nM
- Ki [4]: 46 nM

SMILES: COc1cccc(Sc2nccc(-c3ccc4nc(NC(C)=O)sc4c3)n2)c1
- IC50 [2]: > 6000 nM
- Ki [4]: 48 nM

SMILES: COc1ccc(C(=O)Nc2nccc(-c3ccc4nc(NC(C)=O)sc4c3)n2)cc1
- IC50 [2]: > 6000 nM
- Ki [4]: 3130 nM

SMILES: CC(=O)Nc1nc2ccc(-c3cnc(Cl)c(NS(=O)(=O)c4ccc(C(C)(C)C)cc4)c3)cc2s1
- microsomal CLint (in vitro [1]): 135 µL/min/mg
- IC50 [2]: 2.1 nM
- microsomal CLint (in vitro [3]): 460 µL/min/mg
- Ki [4]: < 1 nM

SMILES: CC(=O)Nc1nc2ccc(-c3ccnc(Sc4cccc(F)c4)n3)cc2s1
- IC50 [2]: > 6000 nM
- Ki [4]: 31 nM

SMILES: CC(=O)Nc1nc2ccc(-c3ccnc(OCCCN4CCOCC4)n3)cc2s1
- IC50 [2]: > 6000 nM

SMILES: CC(=O)Nc1nc2ccc(-c3ccnc(Sc4ccc(F)cc4)n3)cc2s1
- IC50 [2]: > 6000 nM
- Ki [4]: 44 nM

SMILES: CC(=O)Nc1nc2ccc(-c3ccnc(OCCCc4cccnc4)n3)cc2s1
- IC50 [2]: 913 nM

SMILES: COc1ccc(S(=O)(=O)Nc2nccc(-c3ccc4nc(NC(C)=O)sc4c3)n2)cc1
- IC50 [2]: 57 nM

SMILES: CC(=O)Nc1nc2ccc(-c3ccnc(NS(=O)(=O)c4cccc(F)c4)n3)cc2s1
- IC50 [2]: 47 nM
- Ki [4]: 84 nM

SMILES: COc1ccc(COc2nccc(-c3ccc4nc(NC(C)=O)sc4c3)n2)cc1
- IC50 [2]: > 6000 nM
- Ki [4]: 58 nM

SMILES: CC(=O)Nc1nc2ccc(-c3ccnc(Sc4cccc(C)c4)n3)cc2s1
- IC50 [2]: > 6000 nM
- Ki [4]: 53 nM

SMILES: CC(=O)Nc1nc2ccc(-c3cnc(Cl)c(NS(=O)(=O)c4ccccc4C(F)(F)F)c3)cc2s1
- microsomal CLint (in vitro [1]): < 14 µL/min/mg
- IC50 [2]: < 1 nM
- microsomal CLint (in vitro [3]): 500 µL/min/mg
- Ki [4]: < 1 nM

SMILES: CC(=O)Nc1nc2ccc(-c3cnc(Cl)c(NS(=O)(=O)c4ccccc4F)c3)cc2s1
- microsomal CLint (in vitro [1]): < 14 µL/min/mg
- IC50 [2]: 1.1 nM
- microsomal CLint (in vitro [3]): 320 µL/min/mg
- Ki [4]: < 1 nM

SMILES: CC(=O)Nc1nc2ccc(-c3ccnc(Cc4ccccc4)n3)cc2s1
- IC50 [2]: > 6000 nM
- Ki [4]: 605 nM

SMILES: CC(=O)Nc1nc2ccc(-c3ccnc(OCc4ccncc4)n3)cc2s1
- IC50 [2]: > 6000 nM
- Ki [4]: 128 nM

SMILES: CC(=O)Nc1nc2ccc(-c3ccnc(OCc4cccc(C)c4)n3)cc2s1
- IC50 [2]: > 6000 nM
- Ki [4]: 47 nM

SMILES: CC(=O)Nc1nc2ccc(-c3cnc(Cl)c(NS(=O)(=O)c4cccc(C(C)(C)C)c4)c3)cc2s1
- microsomal CLint (in vitro [1]): 83 µL/min/mg
- IC50 [2]: 2.1 nM
- microsomal CLint (in vitro [3]): 610 µL/min/mg
- Ki [4]: < 1 nM

SMILES: COc1ccccc1Sc1nccc(-c2ccc3nc(NC(C)=O)sc3c2)n1
- IC50 [2]: > 6000 nM

SMILES: CC(=O)Nc1nc2ccc(-c3cnc(Cl)c(NS(=O)(=O)c4ccccc4Cl)c3)cc2s1
- microsomal CLint (in vitro [1]): < 14 µL/min/mg
- IC50 [2]: < 1 nM
- microsomal CLint (in vitro [3]): > 399 µL/min/mg
- Ki [4]: < 1 nM

SMILES: CC(=O)Nc1nc2ccc(-c3ccnc(Oc4ccccc4)n3)cc2s1
- IC50 [2]: > 6000 nM

SMILES: COc1ccc(S(=O)(=O)Nc2cc(-c3ccc4nc(NC(C)=O)sc4c3)cnc2Cl)cc1
- microsomal CLint (in vitro [1]): 42 µL/min/mg
- IC50 [2]: 2.1 nM
- microsomal CLint (in vitro [3]): > 399 µL/min/mg
- Ki [4]: < 1 nM

SMILES: CC(=O)Nc1nc2ccc(-c3ccnc(OCc4ccc(C)cc4)n3)cc2s1
- IC50 [2]: > 6000 nM
- Ki [4]: 58 nM

SMILES: CC(=O)Nc1nc2ccc(-c3ccnc(NS(=O)(=O)c4ccc(C)cc4)n3)cc2s1
- IC50 [2]: 65 nM
- Ki [4]: 82 nM

SMILES: COc1cccc(COc2nccc(-c3ccc4nc(NC(C)=O)sc4c3)n2)c1
- IC50 [2]: > 6000 nM
- Ki [4]: 18 nM

SMILES: CC(=O)Nc1nc2ccc(-c3cnc(Cl)c(NS(=O)(=O)c4cccc(F)c4)c3)cc2s1
- microsomal CLint (in vitro [1]): < 14 µL/min/mg
- IC50 [2]: 2.3 nM
- microsomal CLint (in vitro [3]): > 399 µL/min/mg
- Ki [4]: 1.1 nM

SMILES: CC(=O)Nc1nc2ccc(-c3ccnc(SCc4ccccc4)n3)cc2s1
- IC50 [2]: > 6000 nM

SMILES: CC(=O)Nc1nc2ccc(-c3cnc(Cl)c(NS(=O)(=O)c4cccc(Cl)c4)c3)cc2s1
- microsomal CLint (in vitro [1]): 16 µL/min/mg
- IC50 [2]: < 1 nM
- microsomal CLint (in vitro [3]): > 399 µL/min/mg
- Ki [4]: < 1 nM

SMILES: COc1ccc(S(=O)(=O)Nc2cc(-c3ccc4nc(NC(C)=O)sc4c3)ccn2)cc1
- IC50 [2]: 29 nM

SMILES: CC(=O)Nc1nc2ccc(-c3ccnc(NC(C)(C)c4ccccc4)n3)cc2s1
- IC50 [2]: > 6000 nM

SMILES: CC(=O)Nc1nc2ccc(-c3ccnc(OCc4ccc(F)cc4)n3)cc2s1
- IC50 [2]: > 6000 nM

SMILES: CC(=O)Nc1nc2ccc(-c3ccnc(Sc4ccccc4C)n3)cc2s1
- IC50 [2]: > 6000 nM

SMILES: CC(=O)Nc1nc2ccc(-c3ccnc(CCc4ccccc4)n3)cc2s1
- IC50 [2]: > 6000 nM

SMILES: CC(=O)Nc1nc2ccc(-c3cnc(Cl)c(NS(=O)(=O)c4cccc(C(F)(F)F)c4)c3)cc2s1
- microsomal CLint (in vitro [1]): 17 µL/min/mg
- IC50 [2]: < 1 nM
- microsomal CLint (in vitro [3]): 36 µL/min/mg
- Ki [4]: < 1 nM

SMILES: CC(=O)Nc1nc2ccc(-c3ccnc(N(C)S(=O)(=O)c4ccccc4F)n3)cc2s1
- IC50 [2]: > 6000 nM

SMILES: CC(=O)Nc1nc2ccc(-c3ccnc(OCCCc4ccncc4)n3)cc2s1
- IC50 [2]: > 6000 nM
- Ki [4]: 114 nM

SMILES: CC(=O)Nc1nc2ccc(-c3ccnc(OCc4ccccc4)n3)cc2s1
- IC50 [2]: > 6000 nM
- Ki [4]: 105 nM

SMILES: CC(=O)Nc1nc2ccc(-c3ccnc(NCc4ccccc4)n3)cc2s1
- IC50 [2]: > 6000 nM
- Ki [4]: 85 nM

SMILES: CC(=O)Nc1nc2ccc(-c3ccnc(N(C)S(=O)(=O)c4ccc(C)cc4)n3)cc2s1
- microsomal CLint (in vitro [1]): 579 µL/min/mg
- IC50 [2]: 269 nM
- microsomal CLint (in vitro [3]): > 399 µL/min/mg
